In PubChem BioAssay AID250 (DTP/NCI, 2004):
“And” between values parts separate entries of the source, which are not always exact repeats. Equal entries are not always repeated. Inconclusive results and toxic doses are left out.

Test system: BDF1 mice, L1210 leukemia sc, survival T/C
Test: NCI In Vivo Anticancer Drug Screen. Data for tumor model L1210 Leukemia (subcutaneous) in B6D2F1 (BDF1) mice
Conditions: endpoint: median survival time, higher = longer survival
Outline: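 Expressed as T/C: measurement in compound-treated, tumor-bearing mice relative to vehicle-treated control mice, based on survival or tumor size.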

Q: What does the source list for `O=C(Nc1ccc(C2=NCCN2)cc1)c1ccc(C(=O)Nc2ccc(C3=NCCN3)cc2)c(Cl)c1`?
A: T/C (dose: 0.19 mg/kg/injection, schedule: Q01DX Z (iv), vehicle: water): 100 % of control; T/C (dose: 0.38 mg/kg/injection, schedule: Q01DX Z (iv), vehicle: water): 100 % of control; T/C (dose: 0.75 mg/kg/injection, schedule: Q01DX Z (iv), vehicle: water): 90 % of control; T/C (dose: 1.3 mg/kg/injection, schedule: Q01DX Z (ip), vehicle: water): 95 % of control; T/C (dose: 1.5 mg/kg/injection, schedule: Q01DX Z (iv), vehicle: water): 95 % of control; T/C (dose: 2.16 mg/kg/injection, schedule: Q01DX Z (ip), vehicle: water): 100 % of control; T/C (dose: 2.16 mg/kg/injection, schedule: Q01DX Z (sc), vehicle: water): 95 % of control; T/C (dose: 2.5 mg/kg/injection, schedule: Q01DX Z (sc), vehicle: methylcellulose (MC)): 111 % of control; T/C (dose: 3.0 mg/kg/injection, schedule: Q01DX Z (ip), vehicle: water): 100 % of control; T/C (dose: 3.0 mg/kg/injection, schedule: Q01DX Z (iv), vehicle: water): 100 % of control; T/C (dose: 3.0 mg/kg/injection, schedule: Q01DX Z (sc), vehicle: saline): 100 % of control and 104 % of control; T/C (dose: 3.6 mg/kg/injection, schedule: Q01DX Z (ip), vehicle: water): 90 % of control; T/C (dose: 3.6 mg/kg/injection, schedule: Q01DX Z (sc), vehicle: water): 100 % of control; T/C (dose: 5.0 mg/kg/injection, schedule: Q01DX Z (ip), vehicle: water): 100 % of control; T/C (dose: 5.0 mg/kg/injection, schedule: Q01DX Z (sc), vehicle: methylcellulose (MC)): 116 % of control; T/C (dose: 5.0 mg/kg/injection, schedule: Q01DX Z (sc), vehicle: saline): 100 % of control; T/C (dose: 5.0 mg/kg/injection, schedule: Q01DX Z (sc), vehicle: water): 110 % of control and 111 % of control; T/C (dose: 6.0 mg/kg/injection, schedule: Q01DX Z (ip), vehicle: water): 95 % of control; T/C (dose: 6.0 mg/kg/injection, schedule: Q01DX Z (iv), vehicle: water): 100 % of control; T/C (dose: 6.0 mg/kg/injection, schedule: Q01DX Z (sc), vehicle: water): 100 % of control; T/C (dose: 8.4 mg/kg/injection, schedule: Q01DX Z (ip), vehicle: water): 160 % of control; T/C (dose: 8.4 mg/kg/injection, schedule: Q01DX Z (sc), vehicle: saline): 109 % of control and 110 % of control and 122 % of control; T/C (dose: 8.4 mg/kg/injection, schedule: Q01DX Z (sc), vehicle: water): 170 % of control; T/C (dose: 10.0 mg/kg/injection, schedule: Q01DX Z (ip), vehicle: water): 105 % of control; T/C (dose: 10.0 mg/kg/injection, schedule: Q01DX Z (sc), vehicle: methylcellulose (MC)): 244 % of control; T/C (dose: 10.0 mg/kg/injection, schedule: Q01DX Z (sc), vehicle: water): 120 % of control and 233 % of control; T/C (dose: 12.0 mg/kg/injection, schedule: Q01DX Z (sc), vehicle: water): 181 % of control; T/C (dose: 14.0 mg/kg/injection, schedule: Q01DX Z (ip), vehicle: water): 160 % of control; T/C (dose: 14.0 mg/kg/injection, schedule: Q01DX Z (sc), vehicle: saline): 210 % of control; T/C (dose: 14.0 mg/kg/injection, schedule: Q01DX Z (sc), vehicle: water): 190 % of control and 170 % of control; T/C (dose: 14.0 mg/kg/injection, schedule: Q02DX Z (sc), vehicle: saline): 100 % of control; T/C (dose: 17.0 mg/kg/injection, schedule: Q01DX001 (ip), vehicle: water): 100 % of control; T/C (dose: 17.0 mg/kg/injection, schedule: Q01DX Z (sc), vehicle: water): 210 % of control; T/C (dose: 20.0 mg/kg/injection, schedule: Q01DX Z (sc), vehicle: methylcellulose (MC)): 244 % of control; T/C (dose: 20.0 mg/kg/injection, schedule: Q01DX Z (sc), vehicle: water): 244 % of control; T/C (dose: 23.0 mg/kg/injection, schedule: Q01DX Z (ip), vehicle: water): 180 % of control; T/C (dose: 23.0 mg/kg/injection, schedule: Q01DX Z (sc), vehicle: other): 210 % of control; T/C (dose: 23.0 mg/kg/injection, schedule: Q01DX Z (sc), vehicle: saline): 195 % of control and 200 % of control; T/C (dose: 23.0 mg/kg/injection, schedule: Q01DX Z (sc), vehicle: water): 210 % of control and 240 % of control and 170 % of control; T/C (dose: 23.0 mg/kg/injection, schedule: Q02DX Z (sc), vehicle: saline): 110 % of control; T/C (dose: 23.0 mg/kg/injection, schedule: Q## X Z (sc), vehicle: saline): 110 % of control; T/C (dose: 24.0 mg/kg/injection, schedule: Q01DX Z (sc), vehicle: water): 200 % of control; T/C (dose: 28.0 mg/kg/injection, schedule: Q01DX001 (ip), vehicle: water): 100 % of control; T/C (dose: 28.0 mg/kg/injection, schedule: Q01DX Z (ip), vehicle: water): 205 % of control; T/C (dose: 28.0 mg/kg/injection, schedule: Q01DX Z (sc), vehicle: water): 190 % of control; T/C (dose: 39.0 mg/kg/injection, schedule: Q01DX Z (sc), vehicle: other): 200 % of control; T/C (dose: 39.0 mg/kg/injection, schedule: Q01DX Z (sc), vehicle: saline): 180 % of control and 185 % of control and 195 % of control; T/C (dose: 39.0 mg/kg/injection, schedule: Q01DX Z (sc), vehicle: water): 210 % of control and 195 % of control; T/C (dose: 39.0 mg/kg/injection, schedule: Q## X Z (sc), vehicle: saline): 170 % of control; T/C (dose: 40.0 mg/kg/injection, schedule: Q01DX001 (sc), vehicle: methylcellulose (MC)): 111 % of control; T/C (dose: 40.0 mg/kg/injection, schedule: Q01DX Z (sc), vehicle: methylcellulose (MC)): 177 % of control; T/C (dose: 40.0 mg/kg/injection, schedule: Q01DX Z (sc), vehicle: water): 227 % of control; T/C (dose: 47.0 mg/kg/injection, schedule: Q01DX001 (ip), vehicle: water): 100 % of control; T/C (dose: 47.0 mg/kg/injection, schedule: Q01DX Z (sc), vehicle: water): 200 % of control; T/C (dose: 48.0 mg/kg/injection, schedule: Q01DX Z (sc), vehicle: water): 181 % of control; T/C (dose: 65.0 mg/kg/injection, schedule: Q01DX Z (sc), vehicle: other): 180 % of control; T/C (dose: 65.0 mg/kg/injection, schedule: Q01DX Z (sc), vehicle: saline): 155 % of control and 163 % of control and 166 % of control; T/C (dose: 65.0 mg/kg/injection, schedule: Q01DX Z (sc), vehicle: water): 155 % of control and 185 % of control and 170 % of control; T/C (dose: 65.0 mg/kg/injection, schedule: Q## X Z (sc), vehicle: saline): 200 % of control; T/C (dose: 78.0 mg/kg/injection, schedule: Q01DX001 (ip), vehicle: water): 100 % of control; T/C (dose: 78.0 mg/kg/injection, schedule: Q01DX001 (sc), vehicle: water): 100 % of control; T/C (dose: 78.0 mg/kg/injection, schedule: Q01DX Z (sc), vehicle: water): 170 % of control; T/C (dose: 80.0 mg/kg/injection, schedule: Q01DX001 (sc), vehicle: methylcellulose (MC)): 116 % of control; T/C (dose: 80.0 mg/kg/injection, schedule: Q01DX Z (sc), vehicle: methylcellulose (MC)): 111 % of control; T/C (dose: 80.0 mg/kg/injection, schedule: Q01DX Z (sc), vehicle: water): 155 % of control; T/C (dose: 108.0 mg/kg/injection, schedule: Q01DX001 (sc), vehicle: saline): 170 % of control; T/C (dose: 108.0 mg/kg/injection, schedule: Q01DX Z (sc), vehicle: saline): 154 % of control; T/C (dose: 108.0 mg/kg/injection, schedule: Q02DX Z (sc), vehicle: saline): 200 % of control; T/C (dose: 130.0 mg/kg/injection, schedule: Q01DX001 (ip), vehicle: water): 105 % of control; T/C (dose: 130.0 mg/kg/injection, schedule: Q01DX001 (sc), vehicle: water): 110 % of control; T/C (dose: 160.0 mg/kg/injection, schedule: Q01DX001 (sc), vehicle: methylcellulose (MC)): 166 % of control; T/C (dose: 160.0 mg/kg/injection, schedule: Q01DX001 (sc), vehicle: water): 161 % of control; T/C (dose: 180.0 mg/kg/injection, schedule: Q01DX001 (sc), vehicle: saline): 190 % of control; T/C (dose: 180.0 mg/kg/injection, schedule: Q01DX Z (sc), vehicle: other): 115 % of control; T/C (dose: 180.0 mg/kg/injection, schedule: Q02DX Z (sc), vehicle: saline): 180 % of control; T/C (dose: 300.0 mg/kg/injection, schedule: Q01DX Z (sc), vehicle: other): 90 % of control; T/C (dose: 300.0 mg/kg/injection, schedule: Q01DX Z (sc), vehicle: water): 105 % of control; T/C (dose: 300.0 mg/kg/injection, schedule: Q02DX Z (sc), vehicle: saline): 170 % of control; T/C (dose: 300.0 mg/kg/injection, schedule: Q## X Z (sc), vehicle: saline): 205 % of control; T/C (dose: 320.0 mg/kg/injection, schedule: Q01DX001 (sc), vehicle: water): 222 % of control; T/C (dose: 360.0 mg/kg/injection, schedule: Q01DX001 (sc), vehicle: water): 155 % of control; T/C (dose: 500.0 mg/kg/injection, schedule: Q## X Z (sc), vehicle: saline): 200 % of control; T/C (dose: 600.0 mg/kg/injection, schedule: Q01DX001 (sc), vehicle: water): 150 % of control
